ChEMBL document CHEMBL1201862, “PubChem BioAssay data set” (2004)
“And” between values parts separate entries of the source, which are not always exact repeats. Equal values may be shown once.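 Cultured in 96-well plates, cells were exposed to test compound for 48 hours across five concentrations. GI50 marks 50% less growth.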 The source made the active and inactive calls. Cut-off read from the data, not from the text of the source: active = GI50 up to about 1.1 µM and inactive = higher.

What was measured:
Assay in all cases: NCI tumour cell line growth inhibition, 48 h
HCT-116 = tested on: HCT-116
M14 = tested on: M14
OVCAR-5 = tested on: OVCAR-5
TK-10 = tested on: TK-10
EKVX = tested on: EKVX
SF-268 = tested on: SF-268
SNB-19 = tested on: SNB-19
DU-145 = tested on: DU-145
SN12C = tested on: SN12C
NCI/ADR-RES = tested on: NCI/ADR-RES
MDA-N = tested on: MDA-N
T47D = tested on: T47D
MCF7 = tested on: MCF7
SR = tested on: SR
MOLT-4 = tested on: MOLT-4
ACHN = tested on: ACHN
CCRF-CEM = tested on: CCRF-CEM
OVCAR-8 = tested on: OVCAR-8
HT-29 = tested on: HT-29
A549 = tested on: A549
UACC-62 = tested on: UACC-62
786-0 = tested on: 786-0
LOX IMVI = tested on: LOX IMVI
HOP-92 = tested on: HOP-92
NCI-H460 = tested on: NCI-H460
RPMI-8226 = tested on: RPMI-8226
SF-295 = tested on: SF-295
SK-MEL-28 = tested on: SK-MEL-28
HL-60 = tested on: HL-60
NCI-H226 = tested on: NCI-H226
COLO 205 = tested on: COLO 205
SW-620 = tested on: SW-620
Malme-3M = tested on: Malme-3M
SF-539 = tested on: SF-539
RXF 393 = tested on: RXF 393
HCC 2998 = tested on: HCC 2998
IGROV-1 = tested on: IGROV-1
MDA-MB-231 = tested on: MDA-MB-231
K562 = tested on: K562
UO-31 = tested on: UO-31
CAKI-1 = tested on: CAKI-1
HCT-15 = tested on: HCT-15
SNB-75 = tested on: SNB-75
SK-MEL-5 = tested on: SK-MEL-5
Hs-578T = tested on: Hs-578T
MDA-MB-435 = tested on: MDA-MB-435
SK-OV-3 = tested on: SK-OV-3
SK-MEL-2 = tested on: SK-MEL-2
HOP-62 = tested on: HOP-62
OVCAR-4 = tested on: OVCAR-4
A498 = tested on: A498
KM12 = tested on: KM12
NCI-H522 = tested on: NCI-H522
NCI-H23 = tested on: NCI-H23
U-251 = tested on: U-251
UACC-257 = tested on: UACC-257
PC-3 = tested on: PC-3
OVCAR-3 = tested on: OVCAR-3
BT-549 = tested on: BT-549

With `COc1cnc2cc(C(=O)O)c3ccccc3c2c1` the GI50 (HCT-116) was > 100 µM (inactive), the GI50 (M14) was 92.5 µM (inactive) and the GI50 (OVCAR-5) was > 100 µM (inactive). The GI50 (TK-10) was > 100 µM (inactive), the GI50 (EKVX) was > 100 µM (inactive) and the GI50 (SF-268) was > 100 µM (inactive). For the same molecule, the GI50 (SNB-19) was > 100 µM (inactive), the GI50 (DU-145) was > 100 µM (inactive) and the GI50 (SN12C) was > 100 µM (inactive). The GI50 (NCI/ADR-RES) was > 100 µM (inactive), the GI50 (MDA-N) was > 100 µM (inactive) and the GI50 (T47D) was > 100 µM (inactive). For the same molecule, the GI50 (MCF7) was > 100 µM (inactive), the GI50 (SR) was > 100 µM (inactive) and the GI50 (MOLT-4) was > 100 µM (inactive). The GI50 (ACHN) was > 100 µM (inactive), the GI50 (CCRF-CEM) was > 100 µM (inactive) and the GI50 (OVCAR-8) was > 100 µM (inactive). For the same molecule, the GI50 (HT-29) was > 100 µM (inactive), the GI50 (A549) was > 100 µM (inactive) and the GI50 (UACC-62) was > 100 µM (inactive). The GI50 (786-0) was > 100 µM (inactive), the GI50 (LOX IMVI) was > 100 µM (inactive) and the GI50 (HOP-92) was > 100 µM (inactive). The GI50 (NCI-H460) was > 100 µM (inactive), the GI50 (RPMI-8226) was 28.1 µM (inactive) and the GI50 (SF-295) was > 100 µM (inactive). For the same molecule, the GI50 (SK-MEL-28) was > 100 µM (inactive), the GI50 (HL-60) was > 100 µM (inactive) and the GI50 (NCI-H226) was > 100 µM (inactive). For the same molecule, the GI50 (COLO 205) was > 100 µM (inactive), the GI50 (SW-620) was > 100 µM (inactive) and the GI50 (Malme-3M) was > 100 µM (inactive). The GI50 (SF-539) was > 100 µM (inactive), the GI50 (RXF 393) was > 100 µM (inactive) and the GI50 (HCC 2998) was > 100 µM (inactive). The GI50 (IGROV-1) was > 100 µM (inactive), the GI50 (MDA-MB-231) was > 100 µM (inactive) and the GI50 (K562) was > 100 µM (inactive). For the same molecule, the GI50 (UO-31) was > 100 µM (inactive), the GI50 (CAKI-1) was > 100 µM (inactive) and the GI50 (HCT-15) was > 100 µM. The GI50 (SNB-75) was 58.3 µM (inactive), the GI50 (SK-MEL-5) was > 100 µM (inactive) and the GI50 (Hs-578T) was > 100 µM (inactive). For the same molecule, the GI50 (MDA-MB-435) was > 100 µM (inactive), the GI50 (SK-OV-3) was > 100 µM (inactive) and the GI50 (SK-MEL-2) was > 100 µM (inactive). For the same molecule, the GI50 (HOP-62) was > 100 µM (inactive), the GI50 (OVCAR-4) was > 100 µM (inactive) and the GI50 (A498) was > 100 µM (inactive). For the same molecule, the GI50 (KM12) was > 100 µM (inactive), the GI50 (NCI-H522) was > 100 µM (inactive) and the GI50 (NCI-H23) was > 100 µM (inactive). The GI50 (U-251) was > 100 µM (inactive), the GI50 (UACC-257) was > 100 µM (inactive) and the GI50 (PC-3) was > 100 µM (inactive). The GI50 (OVCAR-3) was > 100 µM (inactive).

With `N#Cc1c(-c2ccccc2)cc(-c2ccccc2)n(C2OC(CO)C(O)C(O)C2O)c1=S` (stereo unspecified) the GI50 (HCT-116) was 37.4 µM (inactive) and 19.7 µM (inactive), the GI50 (TK-10) was 70.3 µM (inactive) and the GI50 (EKVX) was > 100 µM (inactive). For the same molecule, the GI50 (SF-268) was 34.2 µM (inactive) and 27.4 µM (inactive), the GI50 (SNB-19) was 38 µM (inactive) and 33 µM (inactive) and the GI50 (NCI/ADR-RES) was 72.3 µM (inactive). The GI50 (MDA-N) was 45 µM (inactive) and 23.2 µM (inactive), the GI50 (MCF7) was 27.5 µM (inactive) and 43.4 µM (inactive) and the GI50 (SR) was 30.8 µM (inactive) and 30.9 µM (inactive). For the same molecule, the GI50 (OVCAR-8) was 39.1 µM (inactive) and 32.7 µM (inactive), the GI50 (HT-29) was 23.1 µM (inactive) and 34.4 µM (inactive) and the GI50 (A549) was 32.7 µM (inactive) and 46.1 µM (inactive). For the same molecule, the GI50 (786-0) was 55.5 µM (inactive) and 38.5 µM (inactive), the GI50 (LOX IMVI) was 15 µM (inactive) and 26.8 µM (inactive) and the GI50 (NCI-H460) was 42.1 µM (inactive) and 28.6 µM (inactive). The GI50 (RPMI-8226) was 29.2 µM (inactive) and 21.9 µM (inactive), the GI50 (HL-60) was 36.2 µM (inactive) and 38.7 µM (inactive) and the GI50 (SW-620) was 37.2 µM (inactive) and 23.6 µM (inactive). For the same molecule, the GI50 (RXF 393) was 40.3 µM (inactive), the GI50 (IGROV-1) was 45.5 µM (inactive) and 31 µM (inactive) and the GI50 (UO-31) was 41.2 µM (inactive) and 34.3 µM (inactive). The GI50 (BT-549) was 32.1 µM (inactive) and 25.6 µM (inactive), the GI50 (SNB-75) was 33.2 µM (inactive) and 51.2 µM (inactive) and the GI50 (SK-MEL-5) was 30.4 µM (inactive) and 15.7 µM (inactive). For the same molecule, the GI50 (Hs-578T) was 21.1 µM (inactive) and 31.9 µM (inactive), the GI50 (MDA-MB-435) was 21 µM (inactive) and 25.4 µM (inactive) and the GI50 (A498) was 19.7 µM (inactive). For the same molecule, the GI50 (KM12) was 53.2 µM (inactive) and 48.2 µM (inactive), the GI50 (NCI-H23) was 23.4 µM (inactive) and 29 µM (inactive) and the GI50 (U-251) was 18.8 µM (inactive). For the same molecule, the GI50 (PC-3) was 17.1 µM (inactive) and 29.6 µM (inactive).

For `Cc1cccc2c1c(=O)c1c(O)cc(O)cc1n2C`, the GI50 (HCT-116) was 78.3 µM (inactive), the GI50 (M14) was 55 µM (inactive) and the GI50 (OVCAR-5) was > 100 µM (inactive). For the same molecule, the GI50 (TK-10) was > 100 µM (inactive), the GI50 (EKVX) was 85.1 µM (inactive) and the GI50 (SF-268) was > 100 µM (inactive). The GI50 (SNB-19) was > 100 µM (inactive), the GI50 (DU-145) was > 100 µM (inactive) and the GI50 (SN12C) was > 100 µM (inactive). The GI50 (NCI/ADR-RES) was > 100 µM (inactive), the GI50 (MDA-N) was > 100 µM (inactive) and the GI50 (MCF7) was > 100 µM (inactive). For the same molecule, the GI50 (SR) was > 100 µM (inactive), the GI50 (MOLT-4) was 70.5 µM (inactive) and the GI50 (ACHN) was > 100 µM (inactive). For the same molecule, the GI50 (CCRF-CEM) was > 100 µM (inactive), the GI50 (OVCAR-8) was > 100 µM (inactive) and the GI50 (HT-29) was 72.3 µM (inactive). For the same molecule, the GI50 (A549) was > 100 µM (inactive), the GI50 (UACC-62) was 90.6 µM (inactive) and the GI50 (786-0) was > 100 µM (inactive). For the same molecule, the GI50 (LOX IMVI) was 82 µM (inactive), the GI50 (HOP-92) was 92.9 µM (inactive) and the GI50 (NCI-H460) was > 100 µM (inactive). For the same molecule, the GI50 (RPMI-8226) was > 100 µM (inactive), the GI50 (SF-295) was 89.1 µM (inactive) and the GI50 (SK-MEL-28) was > 100 µM (inactive). The GI50 (HL-60) was > 100 µM (inactive), the GI50 (NCI-H226) was > 100 µM (inactive) and the GI50 (COLO 205) was 30 µM (inactive). The GI50 (SW-620) was > 100 µM (inactive), the GI50 (Malme-3M) was > 100 µM (inactive) and the GI50 (SF-539) was > 100 µM (inactive). For the same molecule, the GI50 (RXF 393) was 59.8 µM (inactive), the GI50 (HCC 2998) was > 100 µM (inactive) and the GI50 (IGROV-1) was > 100 µM (inactive). For the same molecule, the GI50 (MDA-MB-231) was > 100 µM (inactive), the GI50 (K562) was 80.5 µM (inactive) and the GI50 (CAKI-1) was > 100 µM (inactive). For the same molecule, the GI50 (BT-549) was > 100 µM (inactive), the GI50 (HCT-15) was > 100 µM and the GI50 (SNB-75) was 39.4 µM (inactive). The GI50 (SK-MEL-5) was 34.2 µM (inactive), the GI50 (Hs-578T) was 33.8 µM (inactive) and the GI50 (MDA-MB-435) was > 100 µM (inactive). For the same molecule, the GI50 (SK-OV-3) was 66.1 µM (inactive), the GI50 (SK-MEL-2) was > 100 µM (inactive) and the GI50 (HOP-62) was > 100 µM (inactive). For the same molecule, the GI50 (OVCAR-4) was > 100 µM (inactive), the GI50 (A498) was 59 µM (inactive) and the GI50 (KM12) was > 100 µM (inactive). For the same molecule, the GI50 (NCI-H522) was 97.7 µM (inactive), the GI50 (NCI-H23) was > 100 µM (inactive) and the GI50 (U-251) was > 100 µM (inactive). The GI50 (UACC-257) was > 100 µM (inactive), the GI50 (PC-3) was > 100 µM (inactive) and the GI50 (OVCAR-3) was > 100 µM (inactive).
